Results: patent US12668770B2 (priority 2017, dated 2026)

Columns and labels:
[1] = tested on: ΔNR strain (NR gene-disrupted strain); format: cell-based, Nannochloropsis oculata; set-up: key to viability, ΔNR strain: −: Not grown; +: Suppressed in growth, (somewhat) dye fading; ++: Suppressed in growth; +++: Fully grown
[2] = tested on: ΔNRTΔNR strain (NRT-NR gene-disrupted strain); format: cell-based, Nannochloropsis oculata; set-up: key to viability, ΔNRTΔNR strain: −: Not grown; +: Suppressed in growth, (somewhat) dye fading; ++: Suppressed in growth; +++: Fully grown
[3] = tested on: WT strain of Nannochloropsis oculata NIES-2145; format: cell-based; set-up: key to viability, WT strain: −: Not grown; +: Suppressed in growth, (somewhat) dye fading; ++: Suppressed in growth; +++: Fully grown
[4] = tested on: ΔNRT strain (NRT gene-disrupted strain); format: cell-based, Nannochloropsis oculata; set-up: key to viability, ΔNRT strain: −: Not grown; +: Suppressed in growth, (somewhat) dye fading; ++: Suppressed in growth; +++: Fully grown

SMILES: [K+].[O-][Cl+2]([O-])[O-] [KClO3, potassium chlorate]
- growth of ΔNR strain on chloric acid-containing agar medium (FIG. 7) [1]: growth was unable to be confirmed
- viability, ΔNR strain [1]: −
- growth of ΔNRTΔNR strain (Table 2) [2]: growth was able to be achieved
- growth of ΔNRTΔNR strain on chloric acid-containing agar medium (FIG. 7) [2]: more favorable growth was observed
- viability, ΔNRTΔNR strain [2]: + and +++ and ++
- growth of WT strain on chloric acid-containing agar medium (FIG. 7) [3]: killed
- viability, WT strain [3]: −
- growth of ΔNRT strain (Table 2) [4]: growth was confirmed
- growth of ΔNRT strain on chloric acid-containing agar medium (FIG. 7) [4]: growth was also confirmed
- viability, ΔNRT strain [4]: − and ++
